{"source": "patent US11512042B2", "about": "“Enamine compounds for absorbance of electromagnetic energy” (Commonwealth Scientific and Industrial Research Organisation, priority 2015, dated 2022)", "format_in_all_cases": "physicochemical", "key": {"[1]": {"experiment": "Photostability protocol: thin film irradiated with xenon arc lamp", "settings": "1 hour xenon arc lamp", "method_in_brief": "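A 3% solution in EtOH/triglyceride/alkyl benzoate is dried on glass slides into a liquid film of 1.5 mg compound. Films are irradiated 1 h with a Pyrex-filtered 150 W xenon arc lamp (about 100 MED, below 30° C). Washings are read by UV; stability is absorbance at λmax relative to unirradiated film.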"}, "[2]": {"experiment": "% transmission spectrum of 0.1% solution (breakthrough, steepness)", "method_in_brief": "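Transmission was recorded for 0.1% methanol solutions in a 2 mm cuvette. Breakthrough is the wavelength (nm) at which transmittance exceeds 1%; steepness is the nm span over which transmittance rises from 1 to 80%. Some values are averages of multiple measurements.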"}, "[3]": {"experiment": "UV absorbance spectrum in solution (λmax, λcrit, extinction coefficients)", "method_in_brief": "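Spectra taken on 0.001% solutions in methanol, 10 mm path. Breakthrough is the wavelength where transmittance rises above 1%; steepness is the nm span over which transmittance goes from 1 to 80%.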"}, "[4]": {"experiment": "Irradiation in polyurethane varnish coating", "settings": "1% in polyurethane varnish, xenon arc lamp two hours", "description": "As a model for the use of the compounds of the first aspect in coatings, a 1% solution by mass (10 mg in 1 g) of the compounds in British Paints oil based polyurethane varnish was applied to the surface of a microscope slide and left to dry overnight in the dark. The transmittance of the slide was then measured before irradiating the sample with a xenon arc lamp (as for the solution phase thin film samples) for two hours and the transmittance re-measured. Slight variations in the thickness of the films obtained would be sufficient to result in variations in transmittance so it was judged to be of equal importance to observe the slope of the samples before and after irradiation as any change here was likely an indicator of decomposition. The varnish itself blocks the transmission of light up to approximately 350-370 nm."}, "[5]": {"experiment": "Irradiation of PMMA thin film (xenon lamp, sunlight)", "settings": "irradiated 1 h, 2 h and 3 weeks direct sunlight", "description": "In order to determine the stability of the compounds in a polymer matrix, thin films were cast in Poly(methylmethacrylate) (PMMA). This was achieved by adding the compound in question to a solution of PMMA (Mw 240,000) in DCM and spreading the resulting solution onto a glass slide before evaporation over night to give the desired film. The film was then sandwiched between 2 glass slides to prevent deformation and irradiated. […] In this way films of compound 164 were prepared. The films were irradiated for 1 h, 2 h and also left outside exposed to direct sunlight and atmospheric conditions for 3 weeks (Melbourne summer time)."}, "[6]": {"experiment": "PMMA film in QUV Weatherometer", "settings": "type A bulbs, 70° C. 8 hours then dark humid 50° C. 4 h", "description": "In order to gauge longer term photostability, the PMMA film samples were evaluated in a QUV Weatherometer using type A bulbs with solar irradiance at 70° C. for 8 hours followed by heating in the dark under a humid atmosphere at 50° C. for 4 h. The film was then sandwiched between 2 glass slides to prevent deformation and irradiated. The samples were evaluated by a visual comparison and measurement of transmittance spectra. […] This clearly indicates the suitability of compounds of the first aspect to incorporation into polymeric matrices and films. The relevant transmission spectra are shown in FIG. 11 (142), FIG. 12 (143), FIG. 13 (164), FIG. 14 (213) and FIG. 15 (215) wherein in all of these figures the lower plateau line represents the result following radiation and the upper line prior to irradiation."}, "[7]": {"experiment": "Lens casting in CR-39 lens formulation", "settings": "benzoyl peroxide initiator, cured 70° C. 18 hours, 0.1 wt %", "description": "Two lens formulations were used. The first (CR-39) was composed of Di(ethylene glycol) bis(allylcarbonate) with 3% wt benzoyl peroxide as initiator. The second lens formulation (NK) was made up of 4 parts NK Ester BPE 100N (Ethoxylated Bisphenol A dimethacrylate) to 1 part NK Ester 9G (PEG 400 dimethacrylate) with 0.4 wt % AIBN as initiator.\nOnce the glue had dried the lens matrix (3 g of the lens matrix was treated with 3 mg of absorber, 0.1 wt % and stirred until dissolution complete. 3 g of the matrix was sufficient to prepare 3-4 lenses) was added via pipette to the interior until a convex meniscus was formed at the top of the O-ring. The mixture was then left to settle for 15 minutes during which time any bubbles formed were dispersed. A second microscope slide was then slowly rolled on top of the first to form a seal and expel any air. Taking care to maintain pressure the lens mould was then clamped at the sides with two “Bulldog” clips and cured in an oven at 70° C. for 18 hours. Once the curing process was complete the two microscope slides were separated and the lens removed from the O-ring before washing with acetone and drying/polishing with a soft tissue. The lenses thus formed were approximately 2 mm thick and 15 mm in diameter.\nOf particular interest are compounds 163 and 164 which show an increase in λmax on constraining only the nitrogen substituent in a ring i.e. not the double bond. […] Additionally the dimethyl analogue 213 (structure in table 14) was also evaluated."}, "[8]": {"experiment": "Stability to epoxy resin curing", "settings": "2 part epoxy resin, transmittance vs solution", "description": "In order to test the stability of a number of compounds to a typical epoxy resin curing system, epoxy adhesive packs were obtained (Parfix 5 minute everyday epoxy adhesive, 24 ml). This is a standard 2 part epoxy resin with the first part composed of a viscous Bisphenol-A/epichlorohydrin polymeric reaction product. The second part is a viscous 30% solution of an aminophenol hardener, T (shown below). Epoxy resins cured by 1° and 2° amines are also available.\nTo test the stability of the compounds to the curing conditions, a 0.1% wt (1 mg absorber per gram of resin) was prepared and added to a mould comprising a 2 mm thick viton o-ring super glued to a microscope slide. […] Due to difficulties in solubilising the compounds in the mixed resin/hardener in the limited working time as the resin cured; the two barrels of the application syringe were separated with a scalpel allowing the separate application of both parts of the resin system.\nThis was then mixed thoroughly and immediately added to the moulds as described above. […]"}}, "note": "Entries after “also recorded” stand apart in the source; their conditions may differ."}
{"smiles": "O=C(/C(=C\\N1CCc2ccccc21)c1ccccc1)C(F)(F)F", "note": "[Compound 164]", "values": [{"measurement": "Photostability (% remains)", "setting": "[1]", "result": 99, "unit": "%"}, {"measurement": "Photostability", "setting": "[1]; ratio of absorbance at λmax irradiated vs unirradiated, ^a = average of multiple measurements", "result": 99, "unit": "%"}, {"measurement": "Steepness", "setting": "[2]; distance in nm over which transmittance increases from 1 to 80%", "result": 20, "unit": "nm"}, {"measurement": "Breakthrough (1% T at 0.1%)", "setting": "[2]; value in nm where transmittance increases beyond 1%, 0.1% solution", "result": 418, "unit": "nm"}, {"measurement": "λmax", "setting": "[3]", "result": 367, "unit": "nm"}, {"measurement": "λcrit", "setting": "[3]; critical wavelength", "result": 389, "unit": "nm"}, {"measurement": "E (1%, 1 cm)", "setting": "[3]; mass extinction coefficient", "result": 1127}, {"measurement": "ε", "setting": "[3]; molar extinction coefficient, in M-1 cm-1 (unit assumed)", "result": 35741}, {"measurement": "Stability to irradiation in varnish", "setting": "[4]", "result": "largely unscathed by the irradiation"}, {"measurement": "Stability in PMMA thin film", "setting": "[5]", "result": "without compound deterioration"}, {"measurement": "Longer term photostability in PMMA film", "setting": "[6]", "result": "little sign of decomposition after irradiation"}, {"measurement": "Stability to lens casting conditions", "setting": "[7]", "result": "stable enough for such incorporation; also recorded: good stability to the lens curing conditions"}, {"measurement": "Stability to epoxy resin curing", "setting": "[8]", "result": "remain intact after curing"}]}
